Assays:
[1] = system: Ralstonia solanacearum; format: cell-based
[2] = system: Ralstonia solanacearum; format: cell-based; remark: listed apart in the source

Structure (SMILES) | reduction of population of Ralstonia solanacearum ([1]; compared to untreated control) [%] | volatile bactericidal activity ([1]; in words) | inhibition of the development of R. solanacearum colonies ([2]; 100 μg/ml concentration, FIG. 2) | efficacy against Rs ([2]; tested in vitro and in greenhouse, vapor effect for the oils)
CC(C)=CCC/C(C)=C/CO [Geraniol, geraniol] | 89.5 | volatile bactericidal activity |  | 
Cc1ccc(C(C)C)c(O)c1 [Thymol, thymol] |  |  | entirely inhibited | effective
